Measurements taken from patent US20160282364A1, “ASSAY FOR INSULIN-DEGRADING ENZYME (IDE) INHIBITORS” (PRESIDENT AND FELLOWS OF HARVARD COLLEGE, priority 2013, published 2016).
“And” between values parts separate entries of the source, which are not always exact repeats. Identical values can stand only once. Like-named read-outs stand apart in the source and are kept apart here. Ends that are not written are not given here.

Assays:
hIDE WT = biological target: T1, hIDE WT (Homo sapiens, UniProt P14735); assay: Small molecule-enzyme mutant complementation study, wild type; assay type: biochemical
T1 construct: The reported N-His6-tagged human IDE42-1019 construct; made in house; host or cells: E. coli Rosetta 2 (DE3) pLysS
T1 sequence (P14735 42-1019): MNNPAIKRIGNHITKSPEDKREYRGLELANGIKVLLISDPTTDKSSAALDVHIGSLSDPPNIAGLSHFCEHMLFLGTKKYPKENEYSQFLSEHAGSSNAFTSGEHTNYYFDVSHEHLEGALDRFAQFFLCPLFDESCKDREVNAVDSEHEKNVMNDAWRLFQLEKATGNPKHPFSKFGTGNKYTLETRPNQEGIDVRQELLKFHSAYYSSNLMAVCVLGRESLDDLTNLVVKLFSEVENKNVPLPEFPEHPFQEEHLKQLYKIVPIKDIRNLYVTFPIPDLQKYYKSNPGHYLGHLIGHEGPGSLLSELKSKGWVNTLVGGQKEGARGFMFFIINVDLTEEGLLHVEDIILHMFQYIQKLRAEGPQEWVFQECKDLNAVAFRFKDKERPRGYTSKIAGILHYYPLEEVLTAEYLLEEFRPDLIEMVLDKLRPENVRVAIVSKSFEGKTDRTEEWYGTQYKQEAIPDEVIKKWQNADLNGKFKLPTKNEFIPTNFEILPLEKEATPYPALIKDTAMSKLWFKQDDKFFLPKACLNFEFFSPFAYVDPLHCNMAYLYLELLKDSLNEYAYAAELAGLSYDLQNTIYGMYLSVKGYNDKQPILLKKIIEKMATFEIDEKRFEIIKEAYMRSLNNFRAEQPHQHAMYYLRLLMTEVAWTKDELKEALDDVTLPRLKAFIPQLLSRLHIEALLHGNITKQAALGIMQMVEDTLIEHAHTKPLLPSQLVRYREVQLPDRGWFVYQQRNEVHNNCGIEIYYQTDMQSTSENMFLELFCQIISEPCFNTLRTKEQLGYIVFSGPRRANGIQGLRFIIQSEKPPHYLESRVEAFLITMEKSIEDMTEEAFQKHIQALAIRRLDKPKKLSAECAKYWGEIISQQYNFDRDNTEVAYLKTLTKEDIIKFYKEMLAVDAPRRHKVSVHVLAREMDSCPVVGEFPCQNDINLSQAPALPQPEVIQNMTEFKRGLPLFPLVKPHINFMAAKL
Text: (§1) Protease assays with fluorogenic peptide substrates. […] All assay data points were obtained in duplicate.
(§2) Site-directed mutagenesis, expression, and purification of human IDE. The reported N-His6-tagged human IDE42-1019 construct was introduced in the expression plasmid pTrcHis-A (Invitrogen) using primers for uracil-specific excision reactions (USER) by Taq (NEB) and Pfu polymerases (PfuTurbo CX®, Agilent). The IDE gene was amplified with the primers 5′-[…]-dU-[…] and 5′-[…] G-dU-[…] (underlined sequences represent overhangs, and italics highlight the PCR priming sequence). Similarly, the pTrcHis-A vector was amplified for USER cloning with the primers 5′-[…] TGA-dU-[…] CCC and 5′-[…]-dU-[…]. Mutant IDE constructs were generated by amplifying the full vector construct with USER cloning primers introducing a mutant overhang (Table 5).
(§3) All PCR products were purified on microcentrifuge membrane columns (MinElute®, Qiagen) and quantified by UV absorbance (NanoDrop). Each fragment (0.2 pmol) was combined in a 10 μL reaction mixture containing 20 units DpnI (NEB), 0.75 units of USER mix (Endonuclease VIII and Uracil-DNA Glycosylase, NEB), 20 mM Tris-acetate, 50 mM potassium acetate, 10 mM magnesium acetate, 1 mM dithiothreitol at pH 7.9 (1× NEBuffer 4). The reactions were incubated at 37° C. for 45 min, followed by heating to 80° C. and slow cooling to 30° C. (0.2° C./s). The hybridized constructs were directly used for heat-shock transformation of chemically competent NEB turbo E. coli cells according to the manufacturer's instructions. Transformants were selected on carbenicillin LB agar, and isolated colonies were cultured overnight in 2 mL LB.
(§4) The plasmid was extracted using a microcentrifuge membrane column kit (Miniprep®, Qiagen), and the sequence of genes and vector junctions were confirmed by Sanger sequencing (Table 6). The plasmid constructs were transformed by heat-shock into chemically-competent expression strain Rosetta 2 (DE3) pLysS E. coli cells (EMD Millipore), and selected on carbenicillin/chloramphenicol LB agar. Cells transformed with IDE pTrcHis A constructs were cultured overnight at 37° C. in 2 XYT media (31 g in 1 L) containing 100 μg/mL ampicillin and 34 μg/mL chloramphenicol. Expression of His6-tagged IDE proteins was induced when the culture measured OD600 ˜0.6 by addition of isopropyl-β-D-1-thiogalactopyranoside (IPTG) to 1 mM final concentration, incubated overnight at 37° C., followed by centrifugation at 10,000 g for 30 min at 4° C.
(§5) Recombinant His6-tagged proteins were purified by Ni(II)-affinity chromatography (IMAC sepharose beads, GE Healthcare®) according to the manufacturer's instructions. The cell pellets were resuspended in pH 8.0 buffer containing 50 mM phosphate, 300 mM NaCl, 10 mM imidazole, 1% Triton X-100 and 1 mM tris(2-carboxyethyl)phosphine hydrochloride (TCEP), and were lysed by probe sonication for 4 min at 4° C., followed by clearing of cell debris by centrifugation at 10,000 g for 25 min at 4° C. The supernatant was incubated with Ni(II)-doped IMAC resin (2 mL) for 3 h at 4° C. The resin was washed twice with the cell resuspension/lysis buffer, and three times with pH 8.0 buffer containing 50 mM phosphate, 300 mM NaCl,50 mM imidazole and 1 mM TCEP. Elution was performed in 2 mL aliquots by raising the imidazole concentration to 250 mM and subsequently to 500 mM in the previous buffer. The fractions were combined and the buffer was exchanged to the recommended IDE buffer (R&D) using spin columns with 100 KDa molecular weight cut off membranes (Millipore). Protein yields were typically ˜10 μg/L, and >90% purity based on gel electrophoresis analysis (Coomassie stained).

hIDE F202L = biological target: T2, hIDE F202L (Homo sapiens, UniProt P14735, F202L); assay: Small molecule-enzyme mutant complementation study; assay type: biochemical; details: F202L vs hIDE WT, batch 1
T2 construct: The reported N-His6-tagged human IDE42-1019 construct; made in house; host or cells: E. coli Rosetta 2 (DE3) pLysS
T2 sequence (P14735 42-1019 F202L): as the sequence (P14735 42-1019) above, with F161L counted along it
Text: as §1, §2, §3, §4, §5

hIDE K364A = biological target: T3, hIDE K364A (Homo sapiens, UniProt P14735, K364A); assay: Small molecule-enzyme mutant complementation study; assay type: biochemical; details: K364A vs hIDE WT, batch 2
T3 construct: The reported N-His6-tagged human IDE42-1019 construct was introduced in the expression plasmid pTrcHis-A; made in house; host or cells: E. coli Rosetta 2 (DE3) pLysS
T3 sequence (P14735 42-1019 K364A): as the sequence (P14735 42-1019) above, with K323A counted along it
Text: as §1, §2, §3, §4, §5

hIDE F202R = biological target: T4, hIDE F202R (Homo sapiens, UniProt P14735, F202R); assay: Small molecule-enzyme mutant complementation study; assay type: biochemical; details: F202R vs hIDE WT, batch 2
T4 construct: The reported N-His6-tagged human IDE42-1019 construct; made in house; host or cells: E. coli Rosetta 2 (DE3) pLysS
T4 sequence (P14735 42-1019 F202R): as the sequence (P14735 42-1019) above, with F161R counted along it
Text: as §1, §2, §3, §4, §5

hIDE W199F = biological target: T5, hIDE W199F (Homo sapiens, UniProt P14735, W199F); assay: Small molecule-enzyme mutant complementation study; assay type: biochemical; details: W199F vs hIDE WT, batch 2
T5 construct: The reported N-His6-tagged human IDE42-1019 construct; made in house; host or cells: E. coli Rosetta 2 (DE3) pLysS
T5 sequence (P14735 42-1019 W199F): as the sequence (P14735 42-1019) above, with W158F counted along it
Text: as §1, §2, §3, §4, §5

hIDE A198T = biological target: T6, hIDE A198T (Homo sapiens, UniProt P14735, A198T); assay: Small molecule-enzyme mutant complementation study; assay type: biochemical; details: A198T vs hIDE WT, batch 2
T6 construct: The reported N-His6-tagged human IDE42-1019 construct; made in house; host or cells: E. coli Rosetta 2 (DE3) pLysS
T6 sequence (P14735 42-1019 A198T): as the sequence (P14735 42-1019) above, with A157T counted along it
Text: as §1, §2, §3, §4, §5

hIDE I310R = biological target: T7, hIDE I310R (Homo sapiens, UniProt P14735, I310R); assay: Small molecule-enzyme mutant complementation study; assay type: biochemical; details: I310R vs hIDE WT, batch 2
T7 construct: The reported N-His6-tagged human IDE42-1019 construct; made in house; host or cells: E. coli Rosetta 2 (DE3) pLysS
T7 sequence (P14735 42-1019 I310R): as the sequence (P14735 42-1019) above, with I269R counted along it
Text: as §1, §2, §3, §4, §5

IDE [1] = biological target: IDE (Homo sapiens, UniProt P14735); assay: Protease assay with fluorogenic peptide substrate Mca-[…](Dnp)-OH (IDE species not given); assay type: biochemical; parameters: The proteases IDE42-1019, recombinant human IDE42-1019 (R&D Systems); details: heavy-labeled vs 6bK
Chain of IDE (Homo sapiens, UniProt P14735) (P14735 42-1019): as the sequence (P14735 42-1019) above
Description: All data points and error bars represent mean±SEM. Significance tests were performed using two-tail Student's t-test, and significance levels shown in the figures are p<0.05 (*) or p<0.01 (**) versus the vehicle-only control group. The in vitro selection of the DNA-templated macrocycle libraryl^16,17 used 20 μg His6-tagged mouse IDE immobilized on cobalt magnetic beads (Dynabeads, Invitrogen). IDE proteolytic activity was assayed with fluorogenic peptide Mca-[…](Dnp)-OH (R&D). IDE inhibition was confirmed using an anti-insulin antibody time-resolved FRET assay (Cysbio), and using an LCMS assay for CGRP cleavage fragments CGRP1-17 and CGRP18-37 in plasma^18. […] Protease assays with fluorogenic peptide substrates. […] (R&D). All assay data points were obtained in duplicate.

IDE [2] = details: inhibition of insulin degradation, cited from earlier work
IDE [3] = details: cited from earlier work; for KM / Km / kcat: IDE substrate; for Degradation: degradation kinetics compared to insulin
IDE [4] = assay: Literature survey of IDE substrates, in vitro degradation kinetics; assay type: biochemical; details: KM estimated based on IC50 for inhibition of insulin degradation

Molecule	Degradation (IDE [3])	Km (IDE [3])	kcat (IDE [3])	also measured
CC(C)(C)c1ccc(CC2NC(=O)C(CC3CCCCC3)NC(=O)C(CCC(N)=O)NC(=O)C=CC(=O)NC(C(N)=O)CCCCNC2=O)cc1 (centres unmarked) [Compound 9]	–	–	–	IC50 shift (hIDE WT; batch 1 (reference)): 1.0 fold
CC(C)CC1NC(=O)C(CCC(N)=O)NC(=O)C=CC(=O)NC(C(N)=O)CCCCNC(=O)C(Cc2ccc(C(=O)c3ccccc3)cc2)NC1=O (centres unmarked) [Compound 13]	–	–	–	IC50 shift (hIDE WT; batch 1 (reference)): 1.0 fold; IC50 shift (hIDE WT; batch 2 (reference)): 1.0 fold; IC50 shift (hIDE WT; batch 3 (reference)): 1.0 fold; IC50 shift (hIDE F202L): 2.3 fold; IC50 shift (hIDE K364A): 10.0 fold; IC50 shift (hIDE F202R): 4.1 fold; IC50 shift (hIDE W199F): 3.2 fold; IC50 shift (hIDE A198T): 13.6 fold; IC50 shift (hIDE I310R): 0.7 fold
NC(=O)C1CCCCNC(=O)C(Cc2ccc(C(=O)c3ccccc3)cc2)NC(=O)C(CC2CCCCC2)N[13C](=O)[13CH]([13CH2][13CH2][13CH2][13CH2][15NH2])[15NH]C(=O)C=CC(=O)N1 (centres unmarked) [heavy 6bK]	–	–	–	IC50 compared with 6bK (IDE [1]): identical
B-type natriuretic peptide [B-type NP (BNP)]	Slow	–	–	IC50 (IDE [2]; read-out: IC50): > 1000 nM; KM (IDE [3]): weak
amylin (KCNTATCATQRLANFLVHSSNNFGAILSSTNVGSNTY; not fully specified (C-terminus, bridges); cysteine pairing not given here; UniProt P10997 34-70, looked up) [IDE substrate in vitro]	Medium	~0.3 µM	–	IC50 (IDE [2]; read-out: IC50): 160 nM; Km (IDE [4]): 0.3 µM
amyloid-β peptide(40/42) [Aβ (40, 42)]	Fast	1.23 µM	0.867 s⁻¹	–
atrial natriuretic peptide [atrial NP (ANP)]	Fast	0.06 µM	–	–
bradykinin (RPPGFSPFR; Bradykinin; UniProt P01042 381-389, looked up) [IDE substrate in vitro]	Slow	4.2 µM	–	–
dynorphin A (1-8) (YGGFLRRI; Dynorphin A(1-8); UniProt P01213 207-214, looked up) [IDE substrate in vitro]	–	63.5 µM	0.011 s⁻¹	–
dynorphin A (1-9)	–	60.5 µM	0.0055 s⁻¹	–
dynorphin A (1-10)	–	39.4 µM	0.0623 s⁻¹	–
dynorphin A (1-13) (YGGFLRRIRPKLK; Dynorphin A(1-13); UniProt P01213 207-219, looked up) [IDE substrate in vitro]	–	40.6 µM	0.0623 s⁻¹	–
dynorphin A (1-17)	–	37.4 µM	0.307 s⁻¹	–
dynorphin B (1-9) (YGGFLRRQF; Rimorphin; UniProt P01213 226-234, looked up, fragment) [IDE substrate in vitro]	–	26.8 µM	0.172 s⁻¹	–
dynorphin B (1-13)	–	18.3 µM	0.252 s⁻¹	–
glucagon	Slow	3.5 µM and 3.46 µM	0.633 s⁻¹ and 0.642 s⁻¹	IC50 (IDE [2]): weak
growth hormone releasing factor (1-29)	Slow	11.9 µM	0.39 s⁻¹	–
insulin	Fast	< 0.03 µM	0.0253 s⁻¹	–
insulin-like growth factor-1 [IGF-1]	Slow	–	–	KM (IDE [3]): Weak
insulin-like growth factor-2 [IGF-2]	Fast	–	–	IC50 (IDE [2]; read-out: IC50): 60 nM; Km (IDE [4]): 0.1 µM
kallidin	Slow	7.3 µM	–	–
pancreastatin (1-49) (SEALAVDGAGKPGAEEAQDPEGKGEQEHSQQKEEEEEMAVVPQGLFRGG; Pancreastatin; UniProt P10645 272-320, looked up, fragment) [IDE substrate in vitro]	Slow	41.7 µM	0.177 s⁻¹	–
relaxin	Fast	–	–	IC50 (IDE [2]; read-out: IC50): 54 nM; Km (IDE [4]): 0.11 µM
relaxin-3	Fast	–	–	IC50 (IDE [2]; read-out: IC50): 182 nM; Km (IDE [4]): 0.36 µM
somatostatin-14	Slow	7.5 µM	0.38 s⁻¹	–
transforming growth factor-alpha [TGF-α]	Fast	–	–	IC50 (IDE [2]; read-out: IC50): 80 nM; Km (IDE [4]): 0.15 µM
β-endorphin (1-31)	Slow	13 µM	0.35 s⁻¹	–
